Reference: patent publication US20220227796A1, “EGFR INHIBITORS, COMPOSITIONS AND METHODS THERE OF” (Betta Pharmaceuticals Co., Ltd., priority 2019, published 2022)
Counter-ions that a name gives are not always drawn. Like-named read-outs stand apart in the source and are kept apart here.

Key:
H1975(L858R/T790M) = test: H1975 cells proliferation assay; format: cell-based; conditions: for IC50: Homo sapiens, read-out: H1975 IC50
Procedure: (§1) Test 3 H1975 and HCC827 Cells Proliferation Assay
(§2) a) The medium was preheated in a 37° C. water bath in advance.
(§3) b) Remove the cryogenic vials from the liquid nitrogen tank, quickly put it into a 37° C. water bath, and completely melt it in 1 min.
(§4) c) Transfer the cell suspension to a 15 mL centrifuge tube containing 8 mL medium, centrifuge 1000 rpm, 5 min.
(§5) d) Discard the supernatant, resuspend the cells in 1 mL medium, and transfer to a 75 cm^2 flask containing 15 mL medium, culture the cells in an incubator at 37° C., 5% CO2.
(§6) b) Collect cell to a 15 mL centrifuged tube, centrifuge at 1000 rpm for 5 min. Discard the supernatant, count, and make the cell density at 1×10^4 cells/mL, then place it in a 37° C., 5% CO2 incubator.
(§7) b) The above compound solution was diluted 1:20 times with culture medium to prepare a 10 fold working solution;
(§8) a) Take cells in log phase growth, centrifuge at 1000 rpm for 5 min, then resuspend the cells with culture medium, then count cells;
(§9) b) Cells were seeded to 96-well cell culture plate with density at 2000 cells/well (suitable for H1975 cell) and at 2500 cells/well (suitable for HCC827 cell);
(§10) The blank control well was a culture medium (0.5% DMSO);
(§11) b) The cells were incubated for an additional 72 h in the incubator.
(§12) a) Remove the 96-well cell culture plate and add 50 μl of CTG reagent (CellTiter Glo kit, promega, Cat #G7573).
(§13) b) Plate was shaked for 2 min and then let it cool for 10 min at room temperature.
(§14) c) The Luminescence signal value was read using a PerkinElmer reader.
(§15) Experimental Data Analysis
(§16) Data were analyzed using GraphPad Prism 6.0 software to obtain a fitted curve of compound activity.
(§17) Y=Bottom+(Top−Bottom)/(1+10^((Log IC50−X)*HillSlope));
(§18) The cells proliferation assay results are expressed with IC50, shown as Table 2.

EGFR T790M/L858R = EGFR T790M/L858R (Homo sapiens, UniProt P00533, L858R/T790M); test: Kinase assay (mobility shift) for EGFR T790M/L858R; format: biochemical
EGFR T790M/L858R, sequence (P00533 25-1210 T790M/L858R): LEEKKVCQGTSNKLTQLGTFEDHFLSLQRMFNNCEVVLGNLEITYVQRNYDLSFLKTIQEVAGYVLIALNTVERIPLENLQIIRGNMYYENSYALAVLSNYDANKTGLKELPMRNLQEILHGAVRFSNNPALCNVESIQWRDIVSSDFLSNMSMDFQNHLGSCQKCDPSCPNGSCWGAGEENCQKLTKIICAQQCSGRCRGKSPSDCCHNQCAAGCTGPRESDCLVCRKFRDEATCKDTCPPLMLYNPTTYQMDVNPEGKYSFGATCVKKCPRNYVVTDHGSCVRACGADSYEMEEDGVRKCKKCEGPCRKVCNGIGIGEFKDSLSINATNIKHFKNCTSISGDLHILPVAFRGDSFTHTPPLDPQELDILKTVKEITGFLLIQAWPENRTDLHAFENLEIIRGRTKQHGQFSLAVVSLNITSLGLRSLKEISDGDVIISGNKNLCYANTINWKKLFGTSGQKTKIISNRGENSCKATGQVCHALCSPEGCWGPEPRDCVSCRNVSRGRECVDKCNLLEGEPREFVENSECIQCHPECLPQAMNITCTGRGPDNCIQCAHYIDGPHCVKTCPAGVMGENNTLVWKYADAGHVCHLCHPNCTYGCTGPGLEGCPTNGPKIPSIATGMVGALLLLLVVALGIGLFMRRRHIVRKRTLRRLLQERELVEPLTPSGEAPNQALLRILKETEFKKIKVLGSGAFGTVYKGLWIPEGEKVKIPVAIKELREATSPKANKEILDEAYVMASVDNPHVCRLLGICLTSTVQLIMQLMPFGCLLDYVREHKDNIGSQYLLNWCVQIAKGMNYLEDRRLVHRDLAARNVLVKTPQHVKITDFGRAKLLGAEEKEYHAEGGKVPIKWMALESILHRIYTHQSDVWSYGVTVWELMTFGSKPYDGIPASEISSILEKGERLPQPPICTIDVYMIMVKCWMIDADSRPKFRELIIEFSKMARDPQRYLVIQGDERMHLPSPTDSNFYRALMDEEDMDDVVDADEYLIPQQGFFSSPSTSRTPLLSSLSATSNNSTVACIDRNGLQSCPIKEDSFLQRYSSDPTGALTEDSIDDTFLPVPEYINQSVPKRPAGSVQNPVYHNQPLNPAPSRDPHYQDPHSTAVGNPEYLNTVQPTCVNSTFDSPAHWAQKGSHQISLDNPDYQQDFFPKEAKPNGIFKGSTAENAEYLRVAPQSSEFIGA
Procedure: (§19) Enzyme reaction protocol are as followed:
(§20) 1. Preparing 1* Kinase buffer as followed.
(§21) 2. Preparing Compound Concentration Gradient: Compounds were tested at a concentration of 300 nM, diluted to 100-fold final concentration in 100% DMSO solution in 96-well plates, and compounds were diluted 3 times with Precision, 10 concentrations. Each concentration of the compound was then further diluted to a 5-fold final concentration of the intermediate dilution solution using 1* Kinase buffer.
(§22) 3. 5 μL of each of the prepared intermediate dilution compounds was separately added to the compound wells of the 384-well plate, and each concentration was tested for duplicate wells; 5 μL of 5% DMSO was added to the negative control wells and the positive control wells, respectively.
(§23) 4. 2.5-fold final concentration of the kinase solution was prepared using 1*Kinase buffer.
(§24) 6. Centrifuge at 1000 rpm for 30 seconds, shake the reaction plate and incubate for 10 minutes at room temperature.
(§25) 8. 10 μL of a 2.5-fold final concentration of a mixed solution of ATP and a substrate was added to initiate the reaction.
(§26) 9. Centrifuge the 384-well plate at 1000 rpm for 30 seconds, mix by shaking, and incubate at room temperature for the corresponding time.
(§27) 10. Add 30 μL of the stop solution to stop the kinase reaction, centrifuge at 1000 rpm for 30 seconds, and mix by shaking.
(§28) 11. Read the conversion rate with Caliper EZ Reader.
(§29) Convert conversion values to inhibition values:
(§30) Percent inhibition=(max−conversion % sample)/(max−min)*100.
(§31) “max” stands for the mean value of the positive control well ratio; “min” stands for the mean value of the negative control well; conversion % sample: sample conversion reading.
(§32) Fit the data in log(inhibitor) vs. response Variable slope of GraphPad Prism 5 to obtain IC50 values.
(§33) Equation used is: Y=Bottom+(Top−Bottom)/(1+(IC50/X)*HillSlope)

HCC827(Δ19del) = test: HCC827 cells proliferation assay; format: cell-based; conditions: Homo sapiens, read-out: HCC827 IC50
Procedure: as §1, §2, §3, §4, §5, §6, §7, §8, §9, §10, §11, §12, §13, §14, §15, §16, §17, §18

EGFR Δ19del/T790M/C797S = EGFR Δ19del/T790M/C797S (Homo sapiens, UniProt P00533, T790M/C797S, form not given); test: Kinase assay (mobility shift) for EGFR Δ19del/T790M/C797S; format: biochemical; conditions: read-out: EGFR Δ 19del/T790M/C797S IC50
EGFR Δ19del/T790M/C797S, sequence (P00533 with tags, fused parts or gaps DEL746-750/T790M/C797S, form open): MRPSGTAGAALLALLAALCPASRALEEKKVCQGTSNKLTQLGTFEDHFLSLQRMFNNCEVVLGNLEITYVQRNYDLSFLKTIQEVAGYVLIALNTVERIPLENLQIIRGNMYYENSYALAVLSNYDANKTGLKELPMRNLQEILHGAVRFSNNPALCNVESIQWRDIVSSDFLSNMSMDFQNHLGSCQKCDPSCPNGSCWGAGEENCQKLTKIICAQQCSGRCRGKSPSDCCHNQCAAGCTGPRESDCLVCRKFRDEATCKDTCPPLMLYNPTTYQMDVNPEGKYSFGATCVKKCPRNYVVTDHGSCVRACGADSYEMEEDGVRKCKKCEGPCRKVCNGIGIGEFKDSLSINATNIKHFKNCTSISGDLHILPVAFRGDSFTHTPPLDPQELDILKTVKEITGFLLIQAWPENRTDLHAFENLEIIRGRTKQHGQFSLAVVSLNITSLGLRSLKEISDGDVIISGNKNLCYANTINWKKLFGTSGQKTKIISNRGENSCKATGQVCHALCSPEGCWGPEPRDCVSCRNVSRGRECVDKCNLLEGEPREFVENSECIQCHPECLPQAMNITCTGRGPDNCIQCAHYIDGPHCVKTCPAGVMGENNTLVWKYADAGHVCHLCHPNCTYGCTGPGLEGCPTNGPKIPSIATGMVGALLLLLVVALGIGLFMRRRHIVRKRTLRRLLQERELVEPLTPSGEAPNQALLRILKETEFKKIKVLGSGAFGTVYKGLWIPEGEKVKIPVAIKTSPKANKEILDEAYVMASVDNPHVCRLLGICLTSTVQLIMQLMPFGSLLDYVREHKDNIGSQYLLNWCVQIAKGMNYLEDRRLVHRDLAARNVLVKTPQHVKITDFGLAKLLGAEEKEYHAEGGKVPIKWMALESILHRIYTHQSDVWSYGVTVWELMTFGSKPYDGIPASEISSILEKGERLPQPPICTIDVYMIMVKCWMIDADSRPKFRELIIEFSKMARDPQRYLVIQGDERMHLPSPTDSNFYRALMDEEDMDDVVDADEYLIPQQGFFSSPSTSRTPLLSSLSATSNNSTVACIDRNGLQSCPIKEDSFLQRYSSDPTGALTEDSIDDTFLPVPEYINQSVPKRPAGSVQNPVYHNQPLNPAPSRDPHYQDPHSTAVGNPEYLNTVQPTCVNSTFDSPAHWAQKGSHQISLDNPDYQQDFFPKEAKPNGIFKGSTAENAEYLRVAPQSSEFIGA
Procedure: as §19, §20, §21, §22, §23, §24, §25, §26, §27, §28, §29, §30, §31, §32, §33

EGFR L858R = EGFR L858R (Homo sapiens, UniProt P00533, L858R); test: Kinase assay (mobility shift) for EGFR L858R; format: biochemical
EGFR L858R, sequence (P00533 25-1210 L858R): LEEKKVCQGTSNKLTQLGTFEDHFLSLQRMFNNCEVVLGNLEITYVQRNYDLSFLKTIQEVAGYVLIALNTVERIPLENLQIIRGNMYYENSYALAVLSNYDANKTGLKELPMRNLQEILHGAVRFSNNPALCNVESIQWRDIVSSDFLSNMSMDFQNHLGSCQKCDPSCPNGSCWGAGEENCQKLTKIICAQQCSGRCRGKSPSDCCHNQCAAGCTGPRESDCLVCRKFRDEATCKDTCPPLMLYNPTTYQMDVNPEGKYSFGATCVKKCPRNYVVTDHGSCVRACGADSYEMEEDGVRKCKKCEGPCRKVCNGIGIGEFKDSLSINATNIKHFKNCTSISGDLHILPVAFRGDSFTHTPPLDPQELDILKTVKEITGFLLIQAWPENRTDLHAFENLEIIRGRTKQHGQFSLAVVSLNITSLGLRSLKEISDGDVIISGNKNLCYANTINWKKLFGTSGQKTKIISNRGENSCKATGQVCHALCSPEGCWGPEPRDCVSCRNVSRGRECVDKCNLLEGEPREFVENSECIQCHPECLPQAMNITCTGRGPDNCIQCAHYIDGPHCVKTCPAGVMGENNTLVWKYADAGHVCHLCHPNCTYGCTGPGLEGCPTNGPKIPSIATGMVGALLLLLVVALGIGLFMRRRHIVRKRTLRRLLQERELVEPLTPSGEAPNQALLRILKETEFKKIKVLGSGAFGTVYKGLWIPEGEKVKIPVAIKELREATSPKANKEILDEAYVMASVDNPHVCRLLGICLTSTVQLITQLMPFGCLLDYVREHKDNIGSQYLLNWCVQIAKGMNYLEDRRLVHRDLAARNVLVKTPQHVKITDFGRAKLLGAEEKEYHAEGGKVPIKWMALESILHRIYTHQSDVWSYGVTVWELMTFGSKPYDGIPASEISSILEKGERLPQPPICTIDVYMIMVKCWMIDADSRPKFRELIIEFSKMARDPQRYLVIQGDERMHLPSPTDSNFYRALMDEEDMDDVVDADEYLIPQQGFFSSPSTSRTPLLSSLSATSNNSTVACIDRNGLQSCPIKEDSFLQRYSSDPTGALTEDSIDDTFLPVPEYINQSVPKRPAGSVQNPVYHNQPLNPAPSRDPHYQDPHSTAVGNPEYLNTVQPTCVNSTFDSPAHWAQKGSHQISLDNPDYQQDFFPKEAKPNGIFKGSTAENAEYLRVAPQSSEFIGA
Procedure: as §19, §20, §21, §22, §23, §24, §25, §26, §27, §28, §29, §30, §31, §32, §33

[1] = NCI-H1975, cell proliferation, 72 h, CellTiter Glo, class symbols
[2] = HCC827, cell proliferation, 72 h, CellTiter Glo, class symbols

With `C=CC(=O)Nc1cc(Nc2ncc(Cl)c(Nc3ccccc3P(C)(C)=O)n2)ccc1N1CCC2(CC1)CN(C)C2` [Compound 14, N-(5-((5-chloro-4-((2-(dimethylphosphoryl)phenyl)amino)pyrimidin-2-yl)amino)-2-(2-methyl-2,7-diazaspiro[3.5]nonan-7-yl)phenyl)acrylamide hydrochloric acid salt] the IC50 (H1975(L858R/T790M); [1]) was 10 to 50 nM, the IC50 (EGFR T790M/L858R) was under 10 nM and the IC50 (HCC827(Δ19del); [2]) was 10 to 50 nM. For the same molecule, the IC50 (EGFR Δ19del/T790M/C797S) was under 10 nM and the IC50 (EGFR L858R) was under 10 nM.

Molecule `C=CC(=O)Nc1cc(Nc2nccc(Nc3ccccc3P(C)(C)=O)n2)ccc1N1CCC2(CC1)CC(N(C)C)C2` [Compound 4, N-(2-(2-(dimethylamino)-7-azaspiro[3.5]nonan-7-yl)-5-((4-((2-(dimethylphosphoryl)phenyl)amino)pyrimidin-2-yl)amino)phenyl)acrylamide] has an IC50 (EGFR T790M/L858R) of under 10 nM, an IC50 (EGFR Δ19del/T790M/C797S) of under 10 nM and an IC50 (EGFR L858R) of 10 to 100 nM.

In the case of `C=CC(=O)Nc1cc(Nc2ncc(F)c(Nc3ccccc3P(C)(C)=O)n2)ccc1N(C)CCN(C)C` [Compound 32, N-(2-((2-(dimethylamino)ethyl)(methyl)amino)-5-(4-(2-(dimethylphosphoryl)phenylamino)-5-fluoropyrimidin-2-ylamino)phenyl)acrylamide], the IC50 (H1975(L858R/T790M); [1]) is reported as 10 to 50 nM, the IC50 (EGFR T790M/L858R) is reported as under 10 nM and the IC50 (HCC827(Δ19del); [2]) is reported as under 10 nM. The IC50 (EGFR Δ19del/T790M/C797S) was 10 to 100 nM and the IC50 (EGFR L858R) was under 10 nM.

With `C=CC(=O)Nc1cc(Nc2ncc(Cl)c(Nc3ccccc3P(C)(C)=O)n2)c(OC)cc1N1CC2(CCC(N(C)C)CC2)C1` [Compound 26, N-(5-((5-chloro-4-((2-(dimethylphosphoryl)phenyl)amino)pyrimidin-2-yl)amino)-2-(7-(dimethylamino)-2-azaspiro[3.5]nonan-2-yl)-4-methoxyphenyl)acrylamide] the IC50 (EGFR T790M/L858R) was under 10 nM, the IC50 (EGFR Δ19del/T790M/C797S) was under 10 nM and the IC50 (EGFR L858R) was 10 to 100 nM.

For `C=CC(=O)Nc1cc(Nc2nccc(Nc3ccccc3P(C)(C)=O)n2)c(OC)cc1N1CCC(N2CCN(C)CC2)CC1` [Compound 40, N-(5-((4-((2-(dimethylphosphoryl)phenyl)amino)pyrimidin-2-yl)amino)-4-methoxy-2-(4-(4-methylpiperazin-1-yl)piperidin-1-yl)phenyl)acrylamide], the IC50 (EGFR T790M/L858R) was 10 to 100 nM, the IC50 (EGFR Δ19del/T790M/C797S) was 10 to 100 nM and the IC50 (EGFR L858R) was 10 to 100 nM.

Molecule `C=CC(=O)Nc1cc(Nc2nccc(Nc3ccccc3P(C)(C)=O)n2)c(OC)cc1N(C)CCN(C)C` [Compound 39, N-(2-((2-(dimethylamino)ethyl)(methyl)amino)-5-((4-((2-(dimethylphosphoryl)phenyl)amino)pyrimidin-2-yl)amino)-4-methoxyphenyl)acrylamide] has an IC50 (H1975(L858R/T790M); [1]) of 10 to 50 nM and an IC50 (HCC827(Δ19del); [2]) of under 10 nM.

In the case of `C=CC(=O)Nc1cc(Nc2nccc(-c3cn(C)c4ccccc34)n2)c(OC)cc1N(C)CCN(C)C` [Comparative compound B, reference compound], the IC50 (H1975(L858R/T790M); NCI-H1975, 72 h) is reported as under 10 nM, the “inhibition of double mutant (L858R/T790M)” value (H1975(L858R/T790M); summary in words of Table 2) is reported as “higher inhibition” and the IC50 (HCC827(Δ19del); HCC827, 72 h) is reported as under 10 nM.

For `C=CC(=O)Nc1cc(Nc2ncc(Cl)c(Nc3ccccc3P(C)(C)=O)n2)c(C)cc1N1CCC2(CC1)CC(N(C)C)C2` [Compound 31, N-(5-((5-chloro-4-((2-(dimethylphosphoryl)phenyl)amino)pyrimidin-2-yl)amino)-2-(2-(dimethylamino)-7-azaspiro[3.5]nonan-7-yl)-4-methylphenyl)acrylamide], the IC50 (H1975(L858R/T790M); [1]) was 10 to 50 nM and the IC50 (HCC827(Δ19del); [2]) was 10 to 50 nM.

Molecule `C=CC(=O)Nc1cc(Nc2ncc(Cl)c(Nc3ccccc3P(C)(C)=O)n2)ccc1N1CC2(CCC(N(C)C)CC2)C1` [Compound 2, N-(5-((5-chloro-4-((2-(dimethylphosphoryl)phenyl)amino)pyrimidin-2-yl)amino)-2-(7-(dimethylamino)-2-azaspiro[3.5]nonan-2-yl)phenyl)acrylamide] has an IC50 (EGFR T790M/L858R) of under 10 nM, an IC50 (EGFR Δ19del/T790M/C797S) of under 10 nM and an IC50 (EGFR L858R) of 10 to 100 nM.

With `C=CC(=O)Nc1cc(Nc2nccc(Nc3ccccc3P(C)(C)=O)n2)ccc1N1CCC(N2CCN(C)CC2)CC1` [Compound 38, N-(5-((4-((2-(dimethylphosphoryl)phenyl)amino)pyrimidin-2-yl)amino)-2-(4-(4-methylpiperazin-1-yl)piperidin-1-yl)phenyl)acrylamide] the IC50 (EGFR T790M/L858R) was 10 to 100 nM, the IC50 (EGFR Δ19del/T790M/C797S) was 10 to 100 nM and the IC50 (EGFR L858R) was 10 to 100 nM.

With `C=CC(=O)Nc1cc(Nc2ncc(Cl)c(Nc3ccccc3P(C)(C)=O)n2)c(OC)cc1N1CCC(N2CCN(C)CC2)CC1` [Compound 24, N-(5-((5-chloro-4-((2-(dimethylphosphoryl)phenyl)amino)pyrimidin-2-yl)amino)-4-methoxy-2-(4-(4-methylpiperazin-1-yl)piperidin-1-yl)phenyl)acrylamide] the IC50 (EGFR T790M/L858R) was under 10 nM, the IC50 (HCC827(Δ19del); [2]) was 10 to 50 nM and the IC50 (EGFR Δ19del/T790M/C797S) was under 10 nM. The IC50 (EGFR L858R) was 10 to 100 nM.

`C=CC(=O)Nc1cc(Nc2ncc(F)c(Nc3ccccc3P(C)(C)=O)n2)c(OC)cc1N1CCC(N2CCN(C)CC2)CC1` [Compound 28, N-(5-((4-((2-(dimethylphosphoryl)phenyl)amino)-5-fluoropyrimidin-2-yl)amino)-4-methoxy-2-(4-(4-methylpiperazin-1-yl)piperidin-1-yl)phenyl)acrylamide] was tested, and the IC50 (EGFR T790M/L858R) was 10 to 100 nM, the IC50 (HCC827(Δ19del); [2]) was 10 to 50 nM and the IC50 (EGFR Δ19del/T790M/C797S) was 10 to 100 nM. The IC50 (EGFR L858R) was 10 to 100 nM.

For `C=CC(=O)Nc1cc(Nc2ncc(C)c(Nc3ccccc3P(C)(C)=O)n2)c(OC)cc1N1CCC(N2CCN(C)CC2)CC1` [Compound 22, N-(5-((4-((2-(dimethylphosphoryl)phenyl)amino)-5-methylpyrimidin-2-yl)amino)-4-methoxy-2-(4-(4-methylpiperazin-1-yl)piperidin-1-yl)phenyl)acrylamide], the IC50 (EGFR T790M/L858R) was under 10 nM, the IC50 (HCC827(Δ19del); [2]) was under 10 nM and the IC50 (EGFR Δ19del/T790M/C797S) was under 10 nM. For the same molecule, the IC50 (EGFR L858R) was 10 to 100 nM.

In the case of `C=CC(=O)Nc1cc(Nc2ncc(Cl)c(Nc3ccccc3P(C)(C)=O)n2)c(OC)cc1N(C)CCN(C)C` [Compound 25, N-(5-((5-chloro-4-((2-(dimethylphosphoryl)phenyl)amino)pyrimidin-2-yl)amino)-2-((2-(dimethylamino)ethyl)(methyl)amino)-4-methoxyphenyl)acrylamide], the IC50 (HCC827(Δ19del); [2]) is reported as under 10 nM.

`C=CC(=O)Nc1cc(Nc2ncc(Cl)c(Nc3ccccc3P(C)(C)=O)n2)ccc1N1CC2(CC(N(C)C)C2)C1` [Compound 3, N-(5-((5-chloro-4-((2-(dimethylphosphoryl)phenyl)amino)pyrimidin-2-yl)amino)-2-(6-(dimethylamino)-2-azaspiro[3.3]heptan-2-yl)phenyl)acrylamide] showed an IC50 (EGFR T790M/L858R) of under 10 nM, an IC50 (EGFR Δ19del/T790M/C797S) of under 10 nM and an IC50 (EGFR L858R) of 10 to 100 nM.

`C=CC(=O)Nc1cc(Nc2ncc(Br)c(Nc3ccc4nccnc4c3P(C)(C)=O)n2)c(OC)cc1N1CCC(N2CCN(C)CC2)CC1` [Compound 13, N-(5-((5-bromo-4-((5-(dimethylphosphoryl)quinoxalin-6-yl)amino)pyrimidin-2-yl)amino)-4-methoxy-2-(4-(4-methylpiperazin-1-yl)piperidin-1-yl)phenyl)acrylamide] was tested, and the IC50 (H1975(L858R/T790M); [1]) was 10 to 50 nM and the IC50 (HCC827(Δ19del); [2]) was 10 to 50 nM.

`C=CC(=O)Nc1cc(Nc2ncc(F)c(Nc3ccccc3P(C)(C)=O)n2)c(OC)cc1N(C)CCN(C)C` [Compound 27, N-(2-((2-(dimethylamino)ethyl)(methyl)amino)-5-((4-((2-(dimethylphosphoryl)phenyl)amino)-5-fluoropyrimidin-2-yl)amino)-4-methoxyphenyl)acrylamide] was tested, and the IC50 (H1975(L858R/T790M); [1]) was under 10 nM and the IC50 (HCC827(Δ19del); [2]) was under 10 nM.
